The supplement of paper PMC5908809

Experiments:
[1] = test system: normal NK cells expanded with K562-aAPC; assay: percent inhibition of viability; higher = more inhibition; conditions: 72 h, IL-2 2.5 ng/mL
Protocol: (§1)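 Drug sensitivity and resistance testing on K562-aAPC-expanded normal NK cells: 5 concentrations (10-fold steps over a 10,000-fold range), 72 h at 37 °C, viability by CellTiter-Glo normalised to DMSO and benzethonium chloride controls; DSS from the fitted curve.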

[2] = test system: DERL-7 (IL-2 2.5 ng/mL); assay: as above; conditions: 72 h
[3] = test system: IMC-1 (IL-2 20 ng/mL); assay: as above; conditions: 72 h
[4] = test system: KAI3 (IL-2 2.5 ng/mL); assay: as above; conditions: 72 h
[5] = test system: KHYG-1 (IL-2 2.5 ng/mL); assay: as above; conditions: 72 h
[6] = test system: NK-92 (IL-2 2.5 ng/mL); assay: as above; conditions: 72 h
[7] = test system: NK-YS (IL-2 2.5 ng/mL); assay: as above; conditions: 72 h
[8] = test system: NKL (IL-2 2.5 ng/mL); assay: as above; conditions: 72 h
[9] = test system: SNK-6 (IL-2 2.5 ng/mL); assay: as above; conditions: 72 h
[10] = test system: YT (IL-2 2.5 ng/mL); assay: as above; conditions: 72 h
[11] = test system: normal primary NK cells, pool 1 (3 donors) (IL-2 2.5 ng/mL); assay: as above; conditions: 72 h
[12] = test system: normal primary NK cells, pool 1 (3 donors), resting (IL-2 0 ng/mL); assay: as above; conditions: 72 h
[13] = test system: normal primary NK cells, pool 2 (3 donors) (IL-2 2.5 ng/mL); assay: as above; conditions: 72 h
[14] = test system: normal primary NK cells, pool 3 (3 donors) (IL-2 2.5 ng/mL); assay: as above; conditions: 72 h
[15] = test system: normal NK cells expanded with K562-aAPC; assay: drug sensitivity score (DSS) (DSS units); higher = more sensitive; extreme values may be limits of the assay; conditions: 72 h; IL-2 2.5 ng/mL
Protocol: as §1

[16] = test system: DERL-7 (IL-2 2.5 ng/mL); assay: as above; conditions: 72 h
[17] = test system: IMC-1 (IL-2 20 ng/mL); assay: as above; conditions: 72 h
[18] = test system: KAI3 (IL-2 2.5 ng/mL); assay: as above; conditions: 72 h
[19] = test system: KHYG-1 (IL-2 2.5 ng/mL); assay: as above; conditions: 72 h
[20] = test system: NK-92 (IL-2 2.5 ng/mL); assay: as above; conditions: 72 h
[21] = test system: NK-YS (IL-2 2.5 ng/mL); assay: as above; conditions: 72 h
[22] = test system: NKL (IL-2 2.5 ng/mL); assay: as above; conditions: 72 h
[23] = test system: SNK-6 (IL-2 2.5 ng/mL); assay: as above; conditions: 72 h
[24] = test system: YT (IL-2 2.5 ng/mL); assay: as above; conditions: 72 h
[25] = test system: normal primary NK cells, pool 1 (3 donors) (IL-2 2.5 ng/mL); assay: as above; conditions: 72 h
[26] = test system: normal primary NK cells, pool 1 (3 donors), resting (IL-2 0 ng/mL); assay: as above; conditions: 72 h
[27] = test system: normal primary NK cells, pool 2 (3 donors) (IL-2 2.5 ng/mL); assay: as above; conditions: 72 h
[28] = test system: normal primary NK cells, pool 3 (3 donors) (IL-2 2.5 ng/mL); assay: as above; conditions: 72 h

COc1cc(O)c2c(c1)/C=C/C[C@H](O)[C@H](O)C(=O)/C=C\C[C@H](C)OC2=O [(5Z)-7-Oxozeaenol] (max concentration tested 10000 nM)
percent inhibition of viability [%]
Conditions | 1 nM | 10 nM | 100 nM | 1000 nM | 10000 nM
[1] | -4.98 | -3.35 | -1.51 | 18.7 | 94.8
[2] | -5.8 | 2.14 | 10.7 | 66.3 | 101
[3] | -4.21 | -3.28 | -4.71 | -7.11 | 48.9
[4] | 0.25 | 0.75 | 5.8 | 59 | 105
[5] | 0.21 | -0.62 | 3.17 | 83.9 | 109
[6] | -20.1 | -30 | -17.5 | 26.2 | 104
[7] | -3.96 | -2.39 | 8.28 | 41.9 | 105
[8] | -8.24 | 17.5 | 38.5 | 80 | 110
[9] | -2.4 | -7.72 | -14.8 | 23.5 | 95
[10] | -2.81 | -5.3 | 6.58 | 46.2 | 105
[11] | -6.25 | 6.9 | 22.8 | 45.6 | 98.5
[12] | -25.1 | 10.7 | 9.8 | 54.5 | 92
[13] | -15.9 | 1.06 | 2.6 | 22.8 | 96.8
[14] | -13.2 | 9.87 | 4.11 | 13.6 | 98.2

Conditions | drug sensitivity score
[15] | 8.28
[16] | 14.1
[17] | 2.11
[18] | 12.6
[19] | 15.6
[20] | 9.5
[21] | 11
[22] | 20.5
[23] | 8.87
[24] | 11.4
[25] | 12.1
[26] | 12
[27] | 8.91
[28] | 7.72

O=C1NC(=O)/C(=C/c2ccc3nccc(-c4ccncc4)c3c2)S1 (max concentration tested 10000 nM)
percent inhibition of viability [%]
Conditions | 1 nM | 10 nM | 100 nM | 1000 nM | 10000 nM
[1] | -7.65 | -6.22 | -2.48 | 25.2 | 68.2
[2] | -4.4 | 4.35 | 9.03 | 60.2 | 88.2
[3] | -1.41 | -1.05 | 0.35 | -13.3 | 36.1
[4] | 4.6 | -4.46 | 10.8 | 33.3 | 66
[5] | -3.03 | -2.9 | 7.97 | 47.8 | 78.5
[6] | -4.72 | -6.37 | -0.26 | 24.6 | 63.5
[7] | -5.37 | -5.14 | 5.36 | 42.1 | 74.2
[8] | -16.6 | -12.9 | 3.48 | 52.1 | 76.4
[9] | 7.06 | 2.93 | 5.43 | 30.6 | 67.5
[10] | -1.99 | -2.62 | 7.22 | 58.7 | 82.4
[11] | -6.7 | 13.9 | 10.7 | 28.1 | 58.9
[12] | 7.14 | 23.7 | 24.7 | 33.3 | 68.1
[13] | -5.69 | 2.64 | 12.6 | 32.4 | 82.4
[14] | -4.27 | 3.99 | 9.93 | 15.9 | 69.4

Conditions | drug sensitivity score
[15] | 7.25
[16] | 12.7
[17] | 1.19
[18] | 7.69
[19] | 10.3
[20] | 6.85
[21] | 9.16
[22] | 10.6
[23] | 7.19
[24] | 12.1
[25] | 6.93
[26] | 14.1
[27] | 8.23
[28] | 6.25

COc1ncc(-c2ccc3nccc(-c4ccnnc4)c3c2)cc1NS(=O)(=O)c1ccc(F)cc1F [Omipalisib] (max concentration tested 1000 nM)
percent inhibition of viability [%]
Conditions | 0.1 nM | 1 nM | 10 nM | 100 nM | 1000 nM
[1] | 3.51 | 3.67 | 20.4 | 44.6 | 55.5
[2] | 1.39 | 16.9 | 45.5 | 77.3 | 95.7
[3] | -0.58 | -1.71 | -11.8 | -32.5 | 29.1
[4] | 2.3 | 36.1 | 15.3 | 35.5 | 62.9
[5] | 1.89 | 1.24 | 8.6 | 40.2 | 91.6
[6] | 3.62 | 20.4 | 32.1 | 48.6 | 69.9
[7] | -0.6 | 1.69 | 13.2 | 53.7 | 73.3
[8] | -9.37 | 0.19 | 6.59 | 54.9 | 80.4
[9] | 8.44 | 2.37 | -0.31 | 30.5 | 61.5
[10] | -0.94 | 1.51 | 27.5 | 54.4 | 79.8
[11] | -10 | -4.5 | 18.5 | 20.1 | 40
[12] | 2.21 | 9.83 | 13.8 | 26.6 | 49.1
[13] | -6.47 | 2.05 | 24.7 | 24.7 | 47.5
[14] | -11.3 | -2.43 | 7.07 | 5.39 | 36.4

Conditions | drug sensitivity score
[15] | 10.6
[16] | 21
[17] | 0.6
[18] | 12.9
[19] | 9.7
[20] | 14.8
[21] | 11.7
[22] | 11.4
[23] | 7.24
[24] | 13.7
[25] | 5.18
[26] | 6.75
[27] | 7.36
[28] | 2.64
